Values after ≈ are worked out from the molar mass of the structure shown. Read-outs that look alike come from different tables or passages of the source.
Assays:
human fibroblast = test: in vitro
S. cerevisiae = test: in vitro; settings: Saccharomyces cerevisiae
[1] = test system: Cryptosporidium parvum (CP); test: Cell culture model of Cryptosporidium parvum infection in HCT-8 cells, real-time qRT-PCR; type: cell-based; settings: Cryptosporidium parvum; for MIC50: 44 h; for inhibition at 0.25 µM: HCT-8, @0.25 uM
Protocol: Fresh oocysts of CP (Iowa strain) were purchased from Bunch Grass Farm (Deary, Id.). Oocysts were further purified by a Percoll-based gradient centrifugation method and surface sterilized with 10% bleach for 7 min on ice, followed by washes with phosphate-buffered saline (PBS). An ileocecal colorectal adenocarcinoma cell line (HCT-8, ATCC #CCL-244) was used to host the growth of CP in vitro. One day before the inoculation, HCT-8 cells were seeded in 96-well plates (2.5×10^4/well) containing RPMI 1640 medium supplied with 10% fetal bovine serum (200 μL medium/well in all experiments) and allowed to grow overnight at 37° C. under 5% CO2 atmosphere until they reached ˜90% confluence. For drug testing, host cells were infected with 1.5×10^4 oocysts per well (ratio ˜1:3). After inoculation, parasite oocysts were allowed to undergo excystation and invasion into host cells for 3 h at 37° C. Free parasites and oocyst walls in the medium were removed from the plates by an exchange of the culture medium. Drugs at specified concentrations were added into the culture at this time point (immediately after the medium exchange). Parasite-infected cells were then incubated at 37° C. for additional 41 h (total 44 h infection time). At least two independent experiments were conducted for every experimental condition, each including two replicates drugs and eight replicates for negative controls.
Plates containing HCT-8 cells infected with CP for 44 h were first centrifuged for 10 min at 1000×g to ensure that free merozoites in the medium were firmly settled on the bottom of the wells. Medium was removed, followed by two gentle washes with PBS. For extracting total RNA, 200 μL of ice-cold Bio-Rad iScript qRT-PCR sample preparation reagent (lysis buffer) (Bio-Rad Laboratories, Hercules, Calif.) was added into each well. Plates were sealed with heat sealing films and subjected to vortex for 20 min. Plates were then incubated at 75° C. for 15 min, followed by centrifugation (5 min, 2000×g) to settle down cell debris. Supernatants were used immediately in subsequent qRT-PCR reactions or the plates were stored at −80° C. until use.
The levels of 18S rRNA transcripts from CP and host cells (referred to as Cp18S and Hs18S) were detected by real-time qRT-PCR method using qScrip™ one-step SYBR green qRT-PCR kit (Quanta Biosciences, Gaithersburg, Md.). Cell lysates prepared as described above were diluted by 100 and 2000 folds for detecting Cp18S and Hs18S transcripts, respectively. Reactions were performed in hard-shell 384-well skirted PCR plates (Bio-Rad Laboratories, Hercules, Calif.) (10 μL/well) containing 3 μL diluted cell lysate, 5 μL one-step SYBR green master mix, 0.2 μl RT master mix and the following primers: Cp18S-1011F and Cp18S-1185R primer pair for Cp18S rRNA, and Hs18S-1F and Hs18S-1R primer pair for Hs18S rRNA. Hs18S levels were used as controls and for normalization.
Real-time qRT-PCR reactions were performed by a Bio-Rad CFX384 Touch Real-Time PCR Detection System. The reactions started with synthesizing cDNA at 50° C. for 20 min, followed by 5 min at 95° C. to denature RNA-cDNA hybrids and deactivate reverse transcriptase, and 40 two-temperature thermal cycles of PCR amplification at 95° C., 10 sec and 58° C., 30 sec. At the end of PCR amplification, melting curve analysis was performed between 65° C. to 95° C. At least 2 technical replicates were included in qRT-PCR reactions for each sample.
The % inhibition (% inh @ (μM)) was calculated using a standard curve.

[2] = CP in HCT-8 cells, 44 h infection, 50% reduction of parasite growth vs control, NA: not active, read-out: MIC50
[3] = HCT-8, @10 uM, read-out: % inh @

| Structure (SMILES) | concentrations at which not toxic, human fibroblast cytotoxicity testing (human fibroblast; human) | concentrations at which not toxic, S. cerevisiae cytotoxicity testing (S. cerevisiae) | MIC50 [1, 2] | inhibition at 10 µM [1, 3] | concentrations at which not toxic, human fibroblast cytotoxicity testing (human fibroblast) | MIC50 [1] | inhibition at 10 µM ([1]; HCT-8, read-out: % inh @ (μM)) | inhibition at 0.25 µM [1] | inhibition at 5 µM ([1]; HCT-8, @5 uM) |
| --- | --- | --- | --- | --- | --- | --- | --- | --- | --- |
| CC(C)NC(=O)Cc1ccc(Oc2nc3cc(F)c(F)cc3s2)cc1 [NZ-403, 2-{4-[(5,6-difluoro-1,3-benzothiazol-2-yl)oxy]phenyl)-N-(propan-2-yl)acetamide] | ≥ 100 µM | ≥ 100 µM | ~10 µM (≈ 3.62 µg/mL) | 63% |  |  |  |  |  |
| CN1CCN(C(=O)Cc2ccc(Oc3nc4cc(F)c(F)cc4s3)cc2)CC1 [NZ-409, 2-{4-[(5,6-difluoro-1,3-benzothiazol-2-yl)oxy]phenyl}-1-(4-methylpiperazin-1-yl)ethan-1-one] | ≥ 100 µM | ≥ 100 µM | ~0.44 µM (≈ 0.178 µg/mL) |  |  |  |  |  |  |
| CNC(=O)Cc1ccc(Oc2nc3ccc(F)cc3s2)cc1F [NZ-410, 2-{2-fluoro-4-[(6-fluoro-1,3-benzothiazol-2-yl)oxy]phenyl}-N-methylacetamide] |  | ≥ 100 µM |  |  | ≥ 100 µM | 2 to 10 µM (≈ 0.669 to 3.34 µg/mL) | 94% |  |  |
| CNC(=O)Cc1ccc(Oc2nc3cc(F)c(F)cc3s2)cc1F [NZ-411, 2-{4-[(5,6-difluoro-1,3-benzothiazol-2-yl)oxy]-2-fluorophenyl}-N-methylacetamide] |  | ≥ 100 µM |  |  | ≥ 100 µM |  | 75.7% |  |  |
| CN(C)CCNC(=O)Cc1ccc(Oc2nc3ccc(F)cc3s2)cc1 [NZ-425, N-[2-(dimethylamino)ethyl]-2-{4-[(6-fluoro-1,3-benzothiazol-2-yl)oxy]phenyl}acetamide] | ≥ 100 µM | ≥ 100 µM | 0.25 to 0.5 µM (≈ 0.0934 to 0.187 µg/mL) |  |  |  |  |  |  |
| O=C(Cc1ccc(Oc2nc3ccc(F)cc3s2)cc1)NCCO [NZ-426, 2-{4-[(6-fluoro-1,3-benzothiazol-2-yl)oxy]phenyl}-N-(2-hydroxyethyl)acetamide] | ≥ 100 µM | ≥ 100 µM | 0.25 to 1 µM (≈ 0.0866 to 0.346 µg/mL) |  |  |  |  |  |  |
| NCCNC(=O)Cc1ccc(Oc2nc3ccc(F)cc3s2)cc1 [NZ-427, N-(2-aminoethyl)-2-{4-[(6-fluoro-1,3-benzothiazol-2-yl)oxy]phenyl}acetamide] | ≥ 100 µM | ≥ 100 µM | < 0.25 µM |  |  |  |  | 71% |  |
| CNC(=O)Cc1c(F)cc(Oc2nc3ccc(F)cc3s2)cc1F [NZ-433, 2-{2,6-difluoro-4-[(6-fluoro-1,3-benzothiazol-2-yl)oxy]phenyl}-N-methylacetamide] | ≥ 100 µM | ≥ 100 µM | ~2 µM (≈ 0.705 µg/mL) |  |  |  |  |  |  |
| NC(=O)CNC(=O)Cc1ccc(Oc2nc3ccc(F)cc3s2)cc1 [NZ-438, N-(carbamoylmethyl)-2-{4-[(6-fluoro-1,3-benzothiazol-2-yl)oxy]phenyl}acetamide] | ≥ 100 µM | ≥ 100 µM | 0.25 to 1 µM (≈ 0.0898 to 0.359 µg/mL) |  |  |  |  | 43% |  |
| O=C(O)Cc1ccc(Oc2nc3cc(F)c(F)cc3s2)cc1F [NZ-440, 2-{4-[(5,6-difluoro-1,3-benzothiazol-2-yl)oxy]-2-fluorophenyl}acetic acid] | ≥ 100 µM | ≥ 100 µM | ~10 µM (≈ 3.39 µg/mL) | 53% |  |  |  |  |  |
| O=C(Cc1ccc(Oc2nc3ccc(F)cc3s2)cc1F)NC1CC1 [NZ-446, N-cyclopropyl-2-{2-fluoro-4-[(6-fluoro-1,3-benzothiazol-2-yl)oxy]phenyl}acetamide] | ≥ 100 µM | ≥ 100 µM | 1 to 4 µM (≈ 0.36 to 1.44 µg/mL) |  |  |  |  |  |  |
| CNC(=O)Cc1c(F)cc(Oc2nc3cc(F)c(F)cc3s2)cc1F [NZ-450, 2-{4-[(5,6-difluoro-1,3-benzothiazol-2-yl)oxy]-2,6-difluorophenyl}-N-methylacetamide] | ≥ 100 µM | ≥ 100 µM | ~2 µM (≈ 0.741 µg/mL) |  |  |  |  |  |  |
| CNC(=O)Cc1c(F)cc(Oc2nc3ccc(Cl)cc3s2)cc1F [NZ-459, 2-{4-[(6-chloro-1,3-benzothiazol-2-yl)oxy]-2,6-difluorophenyl}-N-methylacetamide] | ≥ 100 µM | ≥ 100 µM | 1 µM (≈ 0.369 µg/mL) |  |  |  |  |  |  |
| CNC(=O)Cc1c(F)cc(Oc2cnc3cc(Cl)ccc3n2)cc1F [NZ-460, 2-{4-[(6-chloroquinoxalin-2-yl)oxy]-2,6-difluorophenyl}-N-methylacetamide] | ≥ 100 µM | ≥ 100 µM |  |  |  |  |  |  | 19% |
| CN1CCN(C(=O)Cc2ccc(Oc3nc4ccc(Cl)cc4s3)cc2)CC1 [NZ-464, 2-{4-[(6-chloro-1,3-benzothiazol-2-yl)oxy]phenyl}-1-(4-methylpiperazin-1-yl)ethan-1-one] | ≥ 100 µM | ≥ 100 µM | 0.05 to 0.27 µM (≈ 0.0201 to 0.109 µg/mL) |  |  |  |  |  |  |
| CC(C(=O)N1CCN(C)CC1)c1ccc(Oc2nc3cc(F)c(F)cc3s2)cc1 (stereo not drawn) [NZ-465, 2-{4-[(5,6-difluoro-1,3-benzothiazol-2-yl)oxy]phenyl}-1-(4-methylpiperazin-1-yl)propan-1-one] | ≥ 100 µM | ≥ 100 µM | < 0.25 µM |  |  |  |  | 68% |  |
| CC(C(=O)N1CCN(C)CC1)c1ccc(Oc2nc3ccc(F)cc3s2)cc1 (stereo not drawn) [NZ-466, 2-{4-[(6-fluoro-1,3-benzothiazol-2-yl)oxy]phenyl}-1-(4-methylpiperazin-1-yl)propan-1-one] | ≥ 100 µM | ≥ 100 µM | 0.05 to 0.1 µM (≈ 0.02 to 0.0399 µg/mL) |  |  |  |  |  |  |
| CN1CCN(C(=O)Cc2ccc(Oc3nc4ccc(F)cc4s3)cc2F)CC1 [NZ-467, 2-{2-fluoro-4-[(6-fluoro-1,3-benzothiazol-2-yl)oxy]phenyl}-1-(4-methylpiperazin-1-yl)ethan-1-one] | ≥ 100 µM | ≥ 100 µM | 0.25 to 1 µM (≈ 0.101 to 0.403 µg/mL) |  |  |  |  |  |  |

Reference: patent US11083717B2, “Compositions and methods for drug sensitization of parasites” (The Texas A&M University System, priority 2015, dated 2021)
